The values that follow come from paper PMC8760490, “Discovery of novel furanylbenzamide inhibitors that target oncogenic tyrosine phosphatase SHP2 in leukemia cells” (The Journal of Biological Chemistry, 2021).

The target in one assay is T1, SHP2-E76K (Homo sapiens, UniProt Q06124, E76K).
T1 construct: Recombinant human full-length SHP2 (1–594) WT and E76K mutants; made in house
T1 sequence (Q06124 1-593 E76K): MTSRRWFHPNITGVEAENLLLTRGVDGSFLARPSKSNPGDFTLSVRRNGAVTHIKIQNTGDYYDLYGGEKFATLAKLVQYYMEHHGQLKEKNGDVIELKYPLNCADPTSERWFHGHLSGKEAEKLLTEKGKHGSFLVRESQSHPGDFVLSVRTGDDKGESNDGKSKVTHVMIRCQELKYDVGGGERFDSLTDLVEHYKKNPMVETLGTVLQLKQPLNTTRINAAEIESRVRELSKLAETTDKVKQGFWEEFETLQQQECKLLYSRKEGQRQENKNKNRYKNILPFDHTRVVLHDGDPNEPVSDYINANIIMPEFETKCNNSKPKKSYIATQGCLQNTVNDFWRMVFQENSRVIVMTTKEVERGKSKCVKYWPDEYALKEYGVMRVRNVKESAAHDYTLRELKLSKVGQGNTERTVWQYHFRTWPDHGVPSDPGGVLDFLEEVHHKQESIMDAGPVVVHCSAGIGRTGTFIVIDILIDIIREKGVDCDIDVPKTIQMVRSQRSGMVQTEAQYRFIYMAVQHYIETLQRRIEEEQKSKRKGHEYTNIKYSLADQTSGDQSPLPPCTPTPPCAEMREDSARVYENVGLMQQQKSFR
The experiment in a line: Michaelis–Menten kinetics and mode of inhibition. In kind it is biochemical. An excerpt: We previously reported furanylsalicylic acids as potent and selective inhibitors of the Yersinia tyrosine phosphatase YopH ([37], [38]). […] Thus, we tested whether replacement of the neutral 2-hydroxybenzamide moiety with the negatively charged salicylate would be beneficial for the potency of this scaffold against SHP2. […] To corroborate this postulate, we subjected SBI-4668 to Michaelis–Menten kinetic studies with SHP2-E76K to determine its mode of inhibition (Fig. 3, A and B). Using nonlinear regression, initial rates at various inhibitor and substrate concentrations were fitted to the Michaelis–Menten equations for competitive, noncompetitive, uncompetitive, and mixed inhibitions. Fitting models were then compared using Akaike's Information Criterion (AIC), and inhibition mode probabilities were calculated from the differences between the corresponding second-order corrected AIC scores as previously described ([38], [39]).
SBI-4668 was tested with SHP2-E76K using a similar assay format as described previously. SBI-4668 or vehicle (DMSO) was spotted in triplicate into a black Greiner FLUOTRAC 200 384-well microplate (catalog no.: #781076; Greiner) using an Echo 555 Liquid Handler (Labcyte, Inc). […] Fluorescence intensity was measured in kinetic mode as described previously. The initial rates were determined from the linear progression curves of each SHP2-E76K reaction. […]

In assay [1] the test system is BT-549 TNBC cells. The assay is described as follows: TNBC cell viability (CellTiter-Glo), BT-549. The assay is classed as cell-based. The conditions noted are these: Homo sapiens, BT-549; 72 h per text; 5 days per legend and method. The method, then: (§1) Inhibition of SHP2 has been reported to inhibit the growth of cancer cells including Kasumi-1 acute myeloid leukemia (AML) and KYSE-520 esophageal cancer cells ([30]). […] Thus, we treated two TNBC cell lines, BT-549 and MDA-MB-468, with SBI-4668 or the SHP2 allosteric inhibitor SHP099 at various concentrations and determined cell viability after 72 h, compared with the vehicle control (Fig. 4C). […] Next, we performed an 11-day colony formation assay with TNBC cells treated with SBI-4668 or SHP099 at 5, 10, or 20 μM (Fig. 4D).
Triple-negative breast cancer cell viability was assessed using the ATP-depletion assay CellTiter-Glo. Briefly, 2500 cells in 25 μl media (RPMI + 10% FBS + 1× penicillin–streptomycin [Omega Scientific]) were seeded per well of a 384-well tissue culture–treated plate (Greiner). About 25 nl of 1000× test compound were added using a Labcyte Echo acoustic dispenser, and the cells were incubated for 5 days before addition of 10 μl of CellTiter-Glo reagent as described by the manufacturer. Luminescence was detected on a BioTek Synergy 2 microplate reader, and the values normalized to those of vehicle (DMSO)-treated controls before being plotted using GraphPad Prism.
A general note: In ATP-based viability assays light output follows the ATP content of the culture.

Assay [2] concerns BT-549 TNBC cells. The experiment in a line: 11-day colony formation assay, BT-549. The assay is classed as cell-based. The note with it: 5, 10 or 20 μM, 11 days. The method, then:
as §1
MDA-MB-468 and […] triple-negative breast cancer cells were maintained in Dulbecco's modified Eagle's medium + 10% FBS supplemented with 1× penicillin–streptomycin/L-glutamine (Omega Scientific). About 1500 cells (in 300 μl) were seeded per well of a standard 24-well tissue culture plate (Falcon) and allowed to adhere for 24 h, before the addition of compound(s) as described. After a further 96 h, media were replaced with fresh media containing the same test compounds and concentrations. After 11 days, media were removed, and cells stained with 0.5% crystal violet (in 20% methanol; Sigma) for 20 min with agitation at 80 rpm. Stain was removed, and plates with stained cells were washed by being submerged in excess deionized water and allowed to air dry overnight before imaging.

Broadly, the Ki is the dissociation constant of the complex between target and ligand, obtained from inhibition or displacement. One may read the IC50 as the concentration that inhibits the measured activity by half. On to `O=C(Nc1ccccc1)c1cc(-c2ccc(/C=C3\Sc4ccccc4C3=O)o2)ccc1O` [SBI-4668, (Z)-2-Hydroxy-5-(5-((3-oxobenzo[b]thiophen-2(3H)-ylidene)methyl)furan-2-yl)-N-phenylbenzamide], for which the mode of inhibition result at SHP2-E76K (AIC model comparison) is “either a noncompetitive or a mixed inhibition mechanism”. Further, the Ki on SHP2-E76K (DiFMUP, read-out: inhibition constant (Ki) for noncompetitive inhibition) amounted to 1.8 µM. The IC50 in the assay with BT-549 TNBC cells [1] worked out at 5.4 µM. The “colony formation, BT-549” value with BT-549 TNBC cells [2] is listed as “undetectable”.
